Patent US20240285571A1, “METHODS OF TREATING BONE INFECTIONS” (MICROBION CORPORATION, priority 2020, published 2024)
Like-named read-outs stand apart in the source and are kept apart here.

Key:
E. coli = E. coli MMX 102 (ATCC 25922); cited from earlier work
P. aeruginosa = P. aeruginosa MMX 103 (ATCC 27853); cited from earlier work
S. aureus = test: Broth microdilution MIC (Example 5); type: cell-based, Staphylococcus aureus; conditions: Staphylococcus aureus
Summary of the method: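 CLSI broth microdilution; two-fold serial dilutions, drug-free growth-control wells. Inoculum 0.5 McFarland, diluted 1:20 in media, then a further 1:20 in wells.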

C. difficile = test: Agar dilution MIC, anaerobes (Example 5); type: cell-based, Clostridium difficile; conditions: Clostridioides difficile
N. gonorrhoeae = test: microbe, parasite or virus in culture; conditions: Neisseria gonorrhoeae
[1] = test system: Corynebacterium amycolatum; test: MIC of baseline clinical isolates (Example 8); type: cell-based; conditions: Corynebacterium amycolatum baseline isolates (N′ = 1), central laboratory, mITT
Summary of the method: (§1)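 MIC values reflect CLSI susceptibility testing of MBN-101 (BisEDT) on baseline clinical isolates. These were recovered at a central lab from bone, tissue, swab and sinus tract samples of the infected index site.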

Corynebacterium jeikeium = test: MIC of baseline clinical isolates (Example 8); type: cell-based; conditions: Corynebacterium jeikeium baseline isolates (N′ = 2), central laboratory, mITT
Summary of the method: as §1

Dermabacter hominis = test: MIC of baseline clinical isolates (Example 8); type: cell-based; conditions: Dermabacter hominis baseline isolates (N′ = 1), central laboratory, mITT
Summary of the method: as §1

[2] = ATCC 29213 / MSSA, S. aureus MMX 101 (ATCC 29213), QC, MSSA
[3] = ATCC700057, C. difficile MMX 4381 (ATCC 700057), QC, CCI
[4] = C. difficile MMX 8272, ribotype 255, CCI
[5] = C. difficile MMX 8279, ribotype 005, CCR
[6] = C. difficile MMX 8281, ribotype 010, CCR
[7] = NCTC13307, C. difficile MMX 5681 (NCTC 13307), ribotype 012, CCR
[8] = NCTC13336, C. difficile MMX 5680 (NCTC 13336), ribotype 027, CCI METR
[9] = ATCC49226, N. gonorrhoeae MMX 683 (ATCC 49226), QC
[10] = N. gonorrhoeae MMX 6757, CTX NS
[11] = read-out: MIC values across isolates, N. gonorrhoeae isolates (Table 7)

In the case of `C[C@@H](O)[C@H]1C(=O)N2C(C(=O)O)=C(S[C@@H]3CN[C@H](C(=O)N(C)C)C3)[C@H](C)[C@H]12` [Meropenem], the “CLSI QC range of MIC” value (E. coli) is listed as “(0.008-0.06) μg/mL” and the “CLSI QC range of MIC” value (P. aeruginosa) is listed as “(0.25-1) μg/mL”.

Molecule `OCC(S)CS.[Bi]` (stereo not shown) [MB-2B, bismuth-2,3-dimercaptopropanol] has an MIC (S. aureus; [2]) of 0.5 µg/mL, an MIC (S. aureus; MRSA, S. aureus MMX 5373) of no more than 0.06 µg/mL and an MIC (S. aureus; MRSA, S. aureus MMX 6311) of no more than 0.06 µg/mL. For the same molecule, the MIC (S. aureus; MRSA, S. aureus MMX 9203) was 0.25 µg/mL, the MIC (S. aureus; MRSA, S. aureus MMX 9204) was no more than 0.06 µg/mL and the MIC (S. aureus; MRSA, S. aureus MMX 9205) was no more than 0.06 µg/mL. The MIC (S. aureus; MRSA, read-out: MIC values against MRSA, MRSA isolates (Table 5)) was less than 0.06 µg/mL, the MIC (C. difficile; [3]) was 8 µg/mL and the MIC (C. difficile; [4]) was 8 µg/mL. The MIC (C. difficile; [5]) was 16 µg/mL, the MIC (C. difficile; [6]) was 8 µg/mL and the MIC (C. difficile; [7]) was 8 µg/mL. It also gave an MIC (C. difficile; [8]) of 2 µg/mL, an MIC (N. gonorrhoeae; [9]) of 0.12 µg/mL and an MIC (N. gonorrhoeae; [10]) of 0.5 µg/mL. The MIC (N. gonorrhoeae; N. gonorrhoeae MMX 6791, CIPR) was 0.12 µg/mL, the MIC (N. gonorrhoeae; N. gonorrhoeae MMX 6792, CIPR) was 0.12 µg/mL and the MIC (N. gonorrhoeae; N. gonorrhoeae MMX 6793, CIPR) was 0.5 µg/mL. It also gave an MIC (N. gonorrhoeae; [11]) of 0.12 to 0.5 µg/mL.

`CC(S)C(C)S.[Bi]` (stereo not shown) [MB-6, bismuth-2,3-butanedithiol] showed an MIC (S. aureus; [2]) of no more than 0.06 µg/mL, an MIC (S. aureus; MRSA, S. aureus MMX 5373) of no more than 0.06 µg/mL and an MIC (S. aureus; MRSA, S. aureus MMX 6311) of no more than 0.06 µg/mL. The MIC (S. aureus; MRSA, S. aureus MMX 9204) was no more than 0.06 µg/mL, the MIC (S. aureus; MRSA, S. aureus MMX 9205) was no more than 0.06 µg/mL and the MIC (C. difficile; [3]) was 4 µg/mL. The MIC (C. difficile; [4]) was 2 µg/mL, the MIC (C. difficile; [5]) was 2 µg/mL and the MIC (C. difficile; [6]) was 2 µg/mL. It also gave an MIC (C. difficile; [7]) of 2 µg/mL, an MIC (C. difficile; [8]) of 2 µg/mL and an MIC (N. gonorrhoeae; [9]) of 0.06 µg/mL. For the same molecule, the MIC (N. gonorrhoeae; [10]) was 0.06 µg/mL, the MIC (N. gonorrhoeae; N. gonorrhoeae MMX 6791, CIPR) was 0.12 µg/mL and the MIC (N. gonorrhoeae; N. gonorrhoeae MMX 6792, CIPR) was 0.12 µg/mL. The MIC (N. gonorrhoeae; N. gonorrhoeae MMX 6793, CIPR) was 0.25 µg/mL and the MIC (N. gonorrhoeae; [11]) was 0.06 to 0.25 µg/mL.

In the case of `C[C@H]1COc2c(N3CCN(C)CC3)c(F)cc3c(=O)c(C(=O)O)cn1c23` [Levofloxacin], the MIC [1] is reported as 8 µg/mL, the “n (% resistant)” value [1] is reported as 0 (0.0) n (%) and the MIC (Corynebacterium jeikeium) is reported as 0.18 µg/mL. For the same molecule, the “n (% resistant)” value (Corynebacterium jeikeium) was 0 (0.0) n (%), the MIC (Dermabacter hominis) was 1 µg/mL and the “n (% resistant)” value (Dermabacter hominis) was 0 (0.0) n (%).

In the case of `CC(C)(O/N=C(\C(=O)N[C@@H]1C(=O)N2C(C(=O)[O-])=C(C[n+]3ccccc3)CS[C@H]12)c1csc(N)n1)C(=O)O` [Ceftazidime], the “CLSI QC range of MIC” value (E. coli) is listed as “(0.06-0.5) μg/mL” and the “CLSI QC range of MIC” value (P. aeruginosa) is listed as “(1-4) μg/mL”.

For `CCC[C@@H]1C[C@@H](C(=O)N[C@@H]([C@H]2O[C@H](SC)[C@H](O)[C@@H](O)[C@H]2O)[C@H](C)Cl)N(C)C1` [CLI], the “Mean MIC” value [1] was 2.00 µg/mL, the “n (% resistant)” value [1] was 1 (100.0) n (%) and the “Mean MIC” value (Corynebacterium jeikeium) was 2.00 µg/mL. For the same molecule, the “n (% resistant)” value (Corynebacterium jeikeium) was 2 (100.0) n (%), the “Mean MIC” value (Dermabacter hominis) was 0.50 µg/mL and the “n (% resistant)” value (Dermabacter hominis) was 0 (0.0) n (%).
